Target: T1, BCL6::BCOR (Homo sapiens, UniProt P41182, C67R/C84N/C8Q)
T1 construct: BCL6 (amino acids 5 to 129, with the following changes to the natural protein); made in house; host or cells: E. coli
Assay: BCL6::BCOR ULight TR-FRET assay
Type: binding
Excerpt: Biological Methods BCL6::BCOR ULight TR-FRET Assay:
Biotinylated BCL6 protein corresponding to BCL6 (amino acids 5 to 129, with the following changes to the natural protein: C8Q, C67R, C84N) is expressed in E. coli with a carboxy-terminal Avi tag (amino acid sequence […]). The BCOR ULight peptide uses a direct carboxy-terminal ULight tag (PerkinElmer). The sequence of the peptide is CRSEIISTAPSSWVVPGP, with the amino terminus acetylated and the ULight tag attached to the cysteine. Compounds are dispensed onto assay plates (Proxiplate 384 PLUS, white, PerkinElmer) using an Access Labcyte Workstation with the Labcyte Echo 55×from a DMSO solution. For the chosen highest assay concentration of 100 μM, 150 nl of compound solution are transferred from a 10 mM DMSO compound stock solution. A series of 11 concentrations is transferred for each compound at which each concentration is fivefold lower than the previous one. DMSO is added such that every well has a total of 150 nl compound solution. 5 μL of 1 nM BCL6 protein in assay buffer (50 mM HEPES pH 7.3; 125 mM NaCl; 1 mM GSH; 0.01% Triton-X 100; 0.03% BSA) are added to the 150 nl of compounds. After 30 minutes incubation time at room temperature, 10 μL of a mix containing BCOR ULight peptide (100 nM final assay concentration) and Streptavidin-Europium (0.75 nM final assay concentration) are added. Plates are kept at room temperature. After 240 minutes incubation time the TR-FRET signal is measured in a PerkinElmer Envision HTS Multilabel Reader using the TR-FRET LANCE Ultra specs of PerkinElmer. Each plate contains negative controls (diluted DMSO instead of test compound; BCOR peptide and Streptavidin Europium mix with BCL6 protein) and positive controls (diluted DMSO instead of test compound; BCOR peptide and Streptavidin-Europium mix without BCL6 protein). Negative and positive control values are used for normalization.

Row | SMILES | IC50
1 | CNC(=O)COc1cc2cc(Nc3nc(N4CCCN(C)CC4)ncc3Cl)ccc2n(C)c1=O [Compound I-46] | 13 nM
2 | CNC(=O)COc1cc2cc(Nc3nc(N4CCOC(C)(C)C4)ncc3Cl)ccc2n(C)c1=O [Compound I-50] | 5 nM
3 | CNC(=O)COc1cc2cc(Nc3nc(N4CCO[C@H](C)C4)ncc3Cl)ccc2n(C)c1=O [Compound I-52] | 7 nM
4 | CNC(=O)COc1cc2cc(Nc3nc(N4CCC(N5C[C@H]6CC[C@@H](C5)O6)CC4)ncc3Cl)ccc2n(C)c1=O [Compound I-57] | 6 nM
5 | CNC(=O)COc1cc2cc(Nc3nc(N4CCC(N(C)CC(F)(F)F)CC4)ncc3Cl)ccc2n(C)c1=O [Compound I-58] | 7 nM
6 | CNC(=O)COc1cc2cc(Nc3nc(N4CCC(N5CC6CCC5CC6)CC4)ncc3Cl)ccc2n(C)c1=O [Compound I-59] | 11 nM
7 | CNC(=O)COc1cc2cc(Nc3nc(N4CCN(CC(=O)O)CC4)ncc3Cl)ccc2n(C)c1=O [Compound I-63] | 8 nM
8 | CNC(=O)COc1cc2cc(Nc3nc(N4C[C@H](F)C[C@H](F)C4)ncc3Cl)ccc2n(C)c1=O [Compound I-65] | 23 nM
9 | CNC(=O)COc1cc2cc(Nc3nc(N4CCc5cn[nH]c5C4)ncc3Cl)ccc2n(C)c1=O [Compound I-67] | 5 nM
10 | CNC(=O)COc1cc2cc(Nc3nc(N4CCc5cnn(C)c5C4)ncc3Cl)ccc2n(C)c1=O [Compound I-68] | 7 nM
11 | CNC(=O)COc1cc2cc(Nc3nc(N4CCCC(C)(C#N)C4)ncc3Cl)ccc2n(C)c1=O (stereo not shown) [Compound I-69] | 23 nM
12 | CNC(=O)COc1cc2cc(Nc3nc(N4CC5CCCC5C4)ncc3Cl)ccc2n(C)c1=O (stereo not shown) [Compound I-72] | 9 nM
13 | CCn1c(=O)c(OCC(=O)NC)cc2cc(Nc3nc(N4CCC(C(=O)O)CC4)ncc3Cl)ccc21 [Compound I-73] | 4 nM
14 | CCn1c(=O)c(OCC(=O)NC)cc2cc(Nc3nc(N4CCC(F)CC4)ncc3Cl)ccc21 [Compound I-75] | 5 nM
15 | CCCn1c(=O)c(OCC(=O)NC)cc2cc(Nc3nc(N4CCC(C(=O)O)CC4)ncc3Cl)ccc21 [Compound I-78] | 4 nM
16 | CCCn1c(=O)c(OCC(=O)NC)cc2cc(Nc3nc(N4C[C@H](C)C[C@H](C)C4)ncc3Cl)ccc21 [Compound I-79] | 11 nM
17 | CCCn1c(=O)c(OCC(=O)NC)cc2cc(Nc3nc(N4CCC(F)CC4)ncc3Cl)ccc21 [Compound I-80] | 7 nM
18 | CCCn1c(=O)c(OCC(=O)NC)cc2cc(Nc3nc(N4CCC(F)(F)CC4)ncc3Cl)ccc21 [Compound I-81] | 7 nM
19 | CNC(=O)COc1cc2cc(Nc3nc(N4CCC(C(=O)O)CC4)ncc3Cl)ccc2n(C(C)C)c1=O [Compound I-82] | 4 nM
20 | CNC(=O)COc1cc2cc(Nc3nc(N4CCC(F)(F)CC4)ncc3Cl)ccc2n(C(C)C)c1=O [Compound I-85] | 9 nM
21 | CNC(=O)COc1cc2cc(Nc3nc(N4CCC(F)(F)CC4)ncc3Cl)ccc2n(CC2CC2)c1=O [Compound I-89] | 8 nM
22 | CNC(=O)COc1cc2cc(Nc3nc(N4CCN(CCC(=O)O)CC4)ncc3Cl)ccc2n(C)c1=O [Compound I-91] | 7 nM
23 | CNC(=O)COc1cc2cc(Nc3nc(N4CCC(CC(=O)O)CC4)ncc3Cl)ccc2n(C)c1=O [Compound I-93] | 4 nM
24 | CNC(=O)COc1cc2cc(Nc3nc(N4CCC(C(=O)O)CC4)ncc3Cl)cc(OC)c2n(C)c1=O [Compound I-94] | 2 nM

The remaining lines, values ahead:

Row | IC50 | SMILES
25 | 9 nM | CNC(=O)COc1cc2cc(Nc3nc(N4CCC(CN5CCOCC5)CC4)ncc3Cl)ccc2n(C)c1=O [Compound I-44]
26 | 7 nM | CNC(=O)COc1cc2cc(Nc3nc(N4CCC(N(C)C)CC4)ncc3Cl)ccc2n(C)c1=O [Compound I-45]
27 | 5 nM | CNC(=O)COc1cc2cc(Nc3nc(N4CCc5cnccc5C4)ncc3Cl)ccc2n(C)c1=O [Compound I-47]
28 | 11 nM | CNC(=O)COc1cc2cc(Nc3nc(N4C[C@@H](C)N(C)[C@@H](C)C4)ncc3Cl)ccc2n(C)c1=O [Compound I-48]
29 | 11 nM | CNC(=O)COc1cc2cc(Nc3nc(N4CCN(C)C(C)(C)C4)ncc3Cl)ccc2n(C)c1=O [Compound I-49]
30 | 6 nM | CNC(=O)COc1cc2cc(Nc3nc(N4CCO[C@@H](C)C4)ncc3Cl)ccc2n(C)c1=O [Compound I-51]
31 | 6 nM | CNC(=O)COc1cc2cc(Nc3nc(N4C[C@@H](C)O[C@@H](C)C4)ncc3Cl)ccc2n(C)c1=O [Compound I-53]
32 | 5 nM | CNC(=O)COc1cc2cc(Nc3nc(N4CCOCC4)ncc3Cl)ccc2n(C)c1=O [Compound I-54]
33 | 5 nM | CNC(=O)COc1cc2cc(Nc3nc(N4CCCC(F)CC4)ncc3Cl)ccc2n(C)c1=O (stereo not shown) [Compound I-55]
34 | 4 nM | CNC(=O)COc1cc2cc(Nc3nc(N4CCC(C(C)(C)C(=O)O)CC4)ncc3Cl)ccc2n(C)c1=O [Compound I-56]
35 | 6 nM | CNC(=O)COc1cc2cc(Nc3nc(N4CC5CC4CC5(F)F)ncc3Cl)ccc2n(C)c1=O (stereo not shown) [Compound I-60]
36 | 4 nM | CNC(=O)COc1cc2cc(Nc3nc(N4CCN(CC(=O)O)C(=O)C4)ncc3Cl)ccc2n(C)c1=O [Compound I-61]
37 | 4 nM | CNC(=O)COc1cc2cc(Nc3nc(N4CCC(C(=O)O)CC4)ncc3Cl)ccc2n(C)c1=O [Compound I-62]
38 | 9 nM | CNC(=O)COc1cc2cc(Nc3nc(N4C[C@H](F)C[C@@H](F)C4)ncc3Cl)ccc2n(C)c1=O [Compound I-64]
39 | 5 nM | CNC(=O)COc1cc2cc(Nc3nc(N4CCC[C@H](C)C4)ncc3Cl)ccc2n(C)c1=O [Compound I-66]
40 | 7 nM | CNC(=O)COc1cc2cc(Nc3nc(N4CCC[C@@H](C)C4)ncc3Cl)ccc2n(C)c1=O [Compound I-70]
41 | 9 nM | CNC(=O)COc1cc2cc(Nc3nc(N4CCCC(C)(C)C4)ncc3Cl)ccc2n(C)c1=O [Compound I-71]
42 | 5 nM | CCn1c(=O)c(OCC(=O)NC)cc2cc(Nc3nc(N4C[C@H](C)C[C@H](C)C4)ncc3Cl)ccc21 [Compound I-74]
43 | 5 nM | CCn1c(=O)c(OCC(=O)NC)cc2cc(Nc3nc(N4CCC(F)(F)CC4)ncc3Cl)ccc21 [Compound I-76]
44 | 8 nM | CCn1c(=O)c(OCC(=O)NC)cc2cc(Nc3nc(N4CCC[C@@H](C)C4)ncc3Cl)ccc21 [Compound I-77]
45 | 12 nM | CNC(=O)COc1cc2cc(Nc3nc(N4C[C@H](C)C[C@H](C)C4)ncc3Cl)ccc2n(C(C)C)c1=O [Compound I-83]
46 | 10 nM | CNC(=O)COc1cc2cc(Nc3nc(N4CCC(F)CC4)ncc3Cl)ccc2n(C(C)C)c1=O [Compound I-84]
47 | 3 nM | CNC(=O)COc1cc2cc(Nc3nc(N4CCC(C(=O)O)CC4)ncc3Cl)ccc2n(CC2CC2)c1=O [Compound I-86]
48 | 15 nM | CNC(=O)COc1cc2cc(Nc3nc(N4C[C@H](C)C[C@H](C)C4)ncc3Cl)ccc2n(CC2CC2)c1=O [Compound I-87]
49 | 6 nM | CNC(=O)COc1cc2cc(Nc3nc(N4CCC(F)CC4)ncc3Cl)ccc2n(CC2CC2)c1=O [Compound I-88]
50 | 7 nM | CNC(=O)COc1cc2cc(Nc3nc(N4CCC(C(=O)N5CCN(C)CC5)CC4)ncc3Cl)ccc2n(C)c1=O [Compound I-90]
51 | 5 nM | CNC(=O)COc1cc2cc(Nc3nc(N4CCN(CCC(=O)O)C(=O)C4)ncc3Cl)ccc2n(C)c1=O [Compound I-92]
52 | 2 nM | CNC(=O)COc1cc2cc(Nc3nc(N4CCC[C@@H](C(=O)O)C4)ncc3Cl)cc(OC)c2n(C)c1=O [Compound I-95]
